Assay results published in PubChem BioAssay AID1194 (EPA DSSTox, 2008).
Active and inactive are the calls of the source.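 Rule for the calls: active = chemicals rated mutagenic or weakly mutagenic in the Salmonella bacterial test by one literature review, or positive overall by another; inconclusive = no clear call, values can overlap the other calls; inactive = the rest.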

Test system: Salmonella typhimurium Ames mutagenicity, literature compiled
Experiment: DSSTox (CPDBAS) Carcinogenic Potency Database Salmonella Mutagenicity
Source text: The Carcinogenic Potency Database (CPDB) is a unique and widely used international resource of the results of over 6500 chronic, long-term animal cancer tests on over 1500 chemical substances. The CPDB provides easy access to the bioassay literature, with qualitative and quantitative analyses of both positive and negative experiments that have been published over the past 50 years in the general literature and by the National Cancer Institute/National Toxicology Program. The CPDB standardizes the diverse literature of cancer bioassays that vary widely in protocol, histopathological examination and nomenclature, and in the published author's choices of what information to provide in their papers. Results are reported in the CPDB for tests in rats, mice, hamsters, dogs, and nonhuman primates, and are based on the most positive result among all experiments for each sex-species. The DSSTox CPDBAS (all species) file incorporates data from the CPDB Summary Tables for the full list of over 1500 chemical substances tested in at least one species.
A chemical is classified within the CPDB as mutagenic, i.e. "active", in the Salmonella assay if it was evaluated overall as either "mutagenic" or "weakly mutagenic" by Zeiger [Zeiger, E. (1997) Genotoxicity Database. In: Gold and Zeiger, Eds. Handbook of Carcinogenic Potency and Genotoxicity Databases. Boca Raton, FL: CRC Press, pp. 687-729. http://potency.berkeley.edu/CRCbook.html] or as overall "positive" by the EPA Gene-Tox Program [Kier et al. (1986) Mutat. Res. 168: 69-240].

With O=C1O[C@H]([C@H](O)CO)C(O)=C1O the outcome was “inactive”.

c1cc(OCC2CO2)cc(OCC2CO2)c1 (stereo not drawn) was tested, and the outcome was “active”.

CCCOC(=O)c1cc(O)c(O)c(O)c1 was tested, and the outcome was “inactive”.

In the case of N/C(=N\O)c1ccc([N+](=O)[O-])o1, the outcome is reported as “active”.

In the case of NC(=S)Nc1cccc2ccccc12, the outcome is reported as “active; inactive”.

For CCOC(=O)CC(SP(=S)(OC)OC)C(=O)OCC (stereo not drawn), the outcome was “inactive”.

With C/C=C/C=C/C(=O)O the outcome was “inactive”.

In the case of O=NO, the outcome is reported as “active”.

For O=C(O)C1[O][Sb]2[O]C(=O)C([O]2)C(C(=O)O)[O][Sb]2[O]C(=O)C1[O]2 (stereo not drawn), the outcome was “inactive”.

O=C/C(Cl)=C(/Cl)C(=O)O was tested, and the outcome was “active”.

Nc1ccccc1N was tested, and the outcome was “active”.

For Nc1ccc(-c2ccccc2)cc1, the outcome was “active”.

In the case of O=C1CCO1, the outcome is reported as “active”.

Nc1ccc([N+](=O)[O-])cc1O was tested, and the outcome was “active”.

In the case of CCSCCC(N)C(=O)O (stereo not drawn), the outcome is reported as “inactive”.

With Cc1cc(O)c2c(c1)C(=O)c1cc(O)cc(O)c1C2=O the outcome was “active”.

In the case of O[C@H]([C@H](O)[C@@H](O)CBr)[C@H](O)CBr, the outcome is reported as “active; inactive”.

CCOC(=O)CBr was tested, and the outcome was “active”.

With Clc1ccc(C(c2ccc(Cl)cc2)C(Cl)(Cl)Cl)cc1 the outcome was “inactive”.

With NC(=O)c1cnccn1 the outcome was “inactive; active”.

O=NN1CCCCCCCCCCCC1 was tested, and the outcome was “active; inactive”.

CC(C)CON=O was tested, and the outcome was “active; inactive”.

With [Cl-].[Cl-].[Cl-].[Fe+3] the outcome was “inactive”.

In the case of CCSCC[C@H](N)C(=O)O, the outcome is reported as “inactive”.

With NCCCCCCCCCCC(=O)O the outcome was “inactive; active”.

With CCCl the outcome was “active”.

For CN(C)C(=O)Nc1ccc(Cl)cc1, the outcome was “inactive; active”.

For O=C1c2ccccc2C(=O)c2ccccc21, the outcome was “active; inactive”.

With COP(=O)(OC)OC=C(Cl)Cl the outcome was “active; inactive”.

NC(=O)N(CC(=O)O)N=O was tested, and the outcome was “inactive”.

For CCC(Cl)CCC(Cl)C(Cl)CC(Cl)C(Cl)C(Cl)CCl (stereo not drawn), the outcome was “inactive; active”.

In the case of NCC(=O)O, the outcome is reported as “inactive”.

In the case of Oc1cccc2cccnc12, the outcome is reported as “active; inactive”.

With CN(C)c1ccc(C(=N)c2ccc(N(C)C)cc2)cc1 the outcome was “active”.

For C=C(Cl)Cl, the outcome was “active; inactive”.

With ClC1=C(Cl)[C@@]2(Cl)[C@@H]3[C@@H](Cl)[C@H](Cl)C[C@@H]3C1(Cl)C2(Cl)Cl the outcome was “inactive; active”.

In the case of Nc1cc([N+](=O)[O-])ccc1C(=O)O, the outcome is reported as “active”.

With CCN(CC)N=O the outcome was “active; inactive”.

In the case of CC1(C)COC1=O, the outcome is reported as “active”.

CN=[N+](C)[O-] was tested, and the outcome was “active”.

With CCN(C)N=O the outcome was “active”.

With OCCBr the outcome was “active”.

In the case of COc1cccc2c1cc([N+](=O)[O-])c1c(C(=O)O)cc3c(c12)OCO3, the outcome is reported as “active”.

In the case of CCOP(=S)(OCC)Oc1nc(Cl)c(Cl)cc1Cl, the outcome is reported as “inactive”.

With CC(=O)Nc1ccc2c(c1)Cc1cc(NC(C)=O)ccc1-2 the outcome was “active”.

With C=CCOCC1CO1 (stereo not drawn) the outcome was “active”.

O=C1NC(=O)C(c2ccccc2)(c2ccccc2)N1 was tested, and the outcome was “inactive”.

In the case of CC(CCl)OC(C)CCl (stereo not drawn), the outcome is reported as “active”.

For O=C(O)c1ccccc1-c1c2cc(I)c(=O)c(I)c-2oc2c(I)c(O)c(I)cc12, the outcome was “inactive”.

CCN(CC)C(=O)c1cccc(C)c1 was tested, and the outcome was “inactive; active”.

With Cc1cc(C(C)(C)C)c(O)c(C(C)(C)C)c1 the outcome was “inactive”.

With CN(C)P(=O)(N(C)C)N(C)C the outcome was “inactive”.

With Nc1ncn([C@@H]2O[C@H](CO)[C@@H](O)[C@H]2O)c(=O)n1 the outcome was “active”.

For CCCN(N=O)C(=N)N[N+](=O)[O-], the outcome was “active; inactive”.

Cc1ccccc1S(N)(=O)=O was tested, and the outcome was “inactive”.

In the case of O=C1CCCO1, the outcome is reported as “inactive; active”.

For Cn1cnc([N+](=O)[O-])c1Sc1ncnc2nc[nH]c12, the outcome was “active”.

With O=S1(=O)CC=CC1 the outcome was “inactive; active”.

With O=C(O)[C@@H]1[C@H](C(=O)O)[C@@]2(Cl)C(Cl)=C(Cl)[C@]1(Cl)C2(Cl)Cl the outcome was “inactive; active”.

With CCCC(Cl)CCC(Cl)CCC(Cl)CCC(Cl)CCC(Cl)CCC(Cl)CCC(C)Cl (stereo not drawn) the outcome was “inactive”.

In the case of CC(O)CNCC(C)O (stereo not drawn), the outcome is reported as “inactive”.

For CCCc1cc(=O)[nH]c(=S)[nH]1, the outcome was “inactive; active”.

In the case of F, the outcome is reported as “inactive; active”.

Cc1ccccc1N was tested, and the outcome was “active”.

For S=[Se], the outcome was “active”.

With CCCCOCCO the outcome was “inactive; active”.

CC(=O)NCc1nc(-c2ccc([N+](=O)[O-])o2)no1 was tested, and the outcome was “active”.

CC(COc1ccccc1)N(CCCl)Cc1ccccc1 (stereo not drawn) was tested, and the outcome was “active; inactive”.

C/C=N/O was tested, and the outcome was “inactive”.

For O=S(=O)(O)c1c(N=Nc2c(O)ccc3ccccc23)ccc2ccccc12, the outcome was “inactive; active”.

In the case of COc1cc2c(c3oc(=O)c4c(c13)CC[C@H]4O)[C@@H]1C=CO[C@H]1O2, the outcome is reported as “active”.

C#C[C@]1(O)CC[C@H]2[C@@H]3CCc4cc(O)ccc4[C@H]3CC[C@@]21C was tested, and the outcome was “inactive”.

With C=O the outcome was “active; inactive”.

For COc1cc(-c2ccc(N=Nc3c(S(=O)(=O)O)cc4cc(S(=O)(=O)O)cc(N)c4c3O)c(OC)c2)ccc1N=Nc1c(S(=O)(=O)O)cc2cc(S(=O)(=O)O)cc(N)c2c1O, the outcome was “active”.

CC1CN(N=O)CC(C)O1 (stereo not drawn) was tested, and the outcome was “active”.

In the case of CN(C)N, the outcome is reported as “active”.

In the case of O=C(c1ccccc1)C(O)c1ccccc1 (stereo not drawn), the outcome is reported as “inactive”.

C=C(C)C was tested, and the outcome was “inactive”.

With CCC[CH2][Sn]([CH2]CCC)([CH2]CCC)[O][Sn]([CH2]CCC)([CH2]CCC)[CH2]CCC the outcome was “inactive”.

For CCNc1nc(Cl)nc(NC(C)C)n1, the outcome was “inactive; active”.

With ClC(Cl)(Cl)C(Cl)(Cl)Cl the outcome was “inactive; active”.

Clc1cc2c(cc1Cl)Oc1cc(Cl)c(Cl)cc1O2 was tested, and the outcome was “inactive; active”.

With O=c1c(O)c(-c2ccc(O)c(O)c2)oc2cc(O)cc(O)c12 the outcome was “active; inactive”.

In the case of C=CCc1ccc2c(c1)OCO2, the outcome is reported as “inactive; active”.

Nc1ccc(Cl)c(N)c1 was tested, and the outcome was “active; inactive”.

For O=C(O)Cc1c[nH]c2ccccc12, the outcome was “inactive”.

In the case of ClCCOCCCl, the outcome is reported as “active”.

In the case of O=NN(CCO)CCO, the outcome is reported as “active; inactive”.

ClC=C(Cl)Cl was tested, and the outcome was “inactive; active”.

O=C(N[C@H](CO)[C@H](O)c1ccc([N+](=O)[O-])cc1)C(Cl)Cl was tested, and the outcome was “inactive”.

Nc1ccc2cc3ccc(N)cc3nc2c1 was tested, and the outcome was “active”.

FC(F)OC(Cl)C(F)(F)F (stereo not drawn) was tested, and the outcome was “inactive”.

In the case of Cc1ccc(Cl)cc1N, the outcome is reported as “inactive; active”.

In the case of O=C1CCCCCN1, the outcome is reported as “inactive; active”.

With CN(C)C(=S)SSC(=S)N(C)C the outcome was “active”.

For ClC(Cl)=C(Cl)C(Cl)=C(Cl)Cl, the outcome was “inactive; active”.

In the case of Cc1cc2c(nc1N)[nH]c1ccccc12, the outcome is reported as “active; inactive”.

For c1ccc(Nc2ccc3ccccc3c2)cc1, the outcome was “inactive; active”.

ClC(Cl)=C(Cl)Cl was tested, and the outcome was “inactive; active”.

For O=c1c(O)c(-c2ccc(O)cc2)oc2cc(O)cc(O)c12, the outcome was “active”.

For CNNC, the outcome was “active”.

In the case of C=CN1CCCC1=O, the outcome is reported as “inactive”.

In the case of O=C(OOC(=O)c1ccccc1)c1ccccc1, the outcome is reported as “inactive; active”.

Cc1cccc(C)c1N was tested, and the outcome was “active”.

Nc1nc(N)nc(-c2ccc([N+](=O)[O-])o2)n1 was tested, and the outcome was “active”.

With O=NN1CCCCCC1 the outcome was “active”.

With Nc1ccc(-c2ccc(N)cc2)cc1 the outcome was “active”.

Clc1ccccc1 was tested, and the outcome was “inactive; active”.

In the case of c1ccc2c(c1)Oc1ccccc1O2, the outcome is reported as “inactive”.

In the case of CC(=O)Nc1ccc2c(c1)Cc1ccccc1-2, the outcome is reported as “active”.

CC(=O)OC(OC(C)=O)c1ccc([N+](=O)[O-])o1 was tested, and the outcome was “active”.

Oc1ccc(Cl)cc1Cc1ccccc1 was tested, and the outcome was “inactive; active”.

In the case of C=CCc1ccc(OC)c(OC)c1, the outcome is reported as “inactive; active”.

With Cc1ccc2cc3c(ccc4ccccc43)c3c2c1CC3 the outcome was “active”.

CC(=O)OC[C@]12C[C@H](OC(=O)CC(C)C)C(C)=C[C@H]1O[C@@H]1[C@H](O)[C@@H](OC(C)=O)[C@@]2(C)C12CO2 (stereo partly drawn) was tested, and the outcome was “inactive”.

Oc1ccc(O)cc1 was tested, and the outcome was “inactive”.

For CN(C)c1ccc(C(=O)c2ccc(N(C)C)cc2)cc1, the outcome was “active; inactive”.

In the case of NC(=S)Nc1ccccc1, the outcome is reported as “inactive”.

With CNN the outcome was “active; inactive”.

Nc1nc(-c2ccc([N+](=O)[O-])o2)cs1 was tested, and the outcome was “active”.

With C[N+](C)(C)CCO the outcome was “inactive; active”.

For O=S(=O)(O)c1ccc2c(N=Nc3ccc(S(=O)(=O)O)c4ccccc34)c(O)c(S(=O)(=O)O)cc2c1, the outcome was “inactive”.

With OCC1CO1 (stereo not drawn) the outcome was “active; inactive”.

With Clc1nc(Cl)nc(Nc2ccccc2Cl)n1 the outcome was “inactive”.

For O=S(=O)(O)c1ccc(N=Nc2c(O)ccc3cc(S(=O)(=O)O)ccc23)cc1, the outcome was “inactive; active”.

With O=C1OC(=O)c2ccccc21 the outcome was “inactive; active”.

For O.O=S(=O)([O-])[O-].[Mn+2], the outcome was “inactive; active”.

In the case of Cc1cc(O)c(C(C)(C)C)cc1Sc1cc(C(C)(C)C)c(O)cc1C, the outcome is reported as “inactive; active”.
